Consider 2 compounds from article PMC4304843, “Human Mitochondrial Hsp70 (Mortalin): Shedding Light on ATPase Activity, Interaction with Adenosine Nucleotides, Solution Structure and Domain Organization” (PLoS ONE, 2015).

The term Kd denotes the concentration at which binding is half-saturated. Low readings indicate tighter binding, high ones weaker binding. Usually Km stands for the concentration of substrate that gives half-maximal velocity.

Test [1] addresses T1, human mortalin (mtHsp70, GRP75, HspA9, PBP74) (Homo sapiens, UniProt P38646).
T1 construct: monomeric SEC fraction, alkaline phosphatase treated
Briefly: isothermal titration calorimetry. It counts as binding.

The next test addresses T2, human Hsp70-1A (Homo sapiens, UniProt P0DMV8).
T2 construct: gene HSPA1A; recombinant, expressed in E. coli BL21(DE3) as previously described
Briefly: ATPase, EnzChek phosphate assay, Michaelis-Menten fit. It counts as biochemical. To be noted: TKP buffer without phosphate pH 7.5, 2 mM Mg2+, 37°C, no co-chaperone. The source says:
ATPase, EnzChek phosphate assay, Michaelis-Menten fit on human Hsp70-1A

T1 sequence (P38646 47-679): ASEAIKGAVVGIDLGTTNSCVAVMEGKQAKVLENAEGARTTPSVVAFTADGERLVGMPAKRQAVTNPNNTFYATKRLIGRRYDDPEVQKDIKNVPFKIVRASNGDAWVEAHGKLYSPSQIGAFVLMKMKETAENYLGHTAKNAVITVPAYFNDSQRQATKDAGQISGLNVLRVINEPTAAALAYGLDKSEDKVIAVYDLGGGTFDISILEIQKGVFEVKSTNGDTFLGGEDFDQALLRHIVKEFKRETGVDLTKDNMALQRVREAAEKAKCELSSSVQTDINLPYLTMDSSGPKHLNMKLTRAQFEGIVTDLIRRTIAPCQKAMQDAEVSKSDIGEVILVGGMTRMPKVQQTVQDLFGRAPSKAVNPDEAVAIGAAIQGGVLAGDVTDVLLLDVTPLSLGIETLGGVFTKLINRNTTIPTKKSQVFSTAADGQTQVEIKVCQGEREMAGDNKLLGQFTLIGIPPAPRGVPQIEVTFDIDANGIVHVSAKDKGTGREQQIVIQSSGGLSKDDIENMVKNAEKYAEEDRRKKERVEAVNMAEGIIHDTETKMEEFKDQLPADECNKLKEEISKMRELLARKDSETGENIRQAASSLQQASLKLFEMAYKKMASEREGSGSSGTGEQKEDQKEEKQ
T2 sequence (P0DMV8 2-641): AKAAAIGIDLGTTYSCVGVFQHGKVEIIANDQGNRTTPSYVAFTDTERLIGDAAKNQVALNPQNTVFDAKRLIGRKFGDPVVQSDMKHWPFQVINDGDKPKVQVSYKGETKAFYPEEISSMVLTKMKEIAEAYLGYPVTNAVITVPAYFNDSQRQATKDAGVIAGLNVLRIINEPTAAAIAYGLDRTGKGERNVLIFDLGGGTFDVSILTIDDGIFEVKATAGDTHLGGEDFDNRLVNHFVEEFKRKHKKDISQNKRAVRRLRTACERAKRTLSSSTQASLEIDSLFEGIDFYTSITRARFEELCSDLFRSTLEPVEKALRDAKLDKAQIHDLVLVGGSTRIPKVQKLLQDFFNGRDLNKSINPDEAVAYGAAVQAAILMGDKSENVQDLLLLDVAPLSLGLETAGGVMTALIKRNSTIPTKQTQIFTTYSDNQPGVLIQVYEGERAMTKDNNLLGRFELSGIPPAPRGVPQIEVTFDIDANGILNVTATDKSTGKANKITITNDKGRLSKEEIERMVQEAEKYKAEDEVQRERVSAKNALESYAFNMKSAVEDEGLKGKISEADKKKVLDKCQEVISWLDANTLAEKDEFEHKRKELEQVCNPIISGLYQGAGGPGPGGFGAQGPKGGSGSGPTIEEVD

Regarding `Nc1ncnc2c1ncn2[C@@H]1O[C@H](COP(=O)(O)OP(=O)(O)O)[C@@H](O)[C@H]1O` [ADP], binding in test [1] was characterised by a dissociation constant (Kd) of 2200 ± 100 nM. As for `Nc1ncnc2c1ncn2[C@@H]1O[C@H](COP(=O)(O)OP(=O)(O)OP(=O)(O)O)[C@@H](O)[C@H]1O` [ATP], the Kd in test [1] came to 1100 ± 100 nM. Also, the Km on human Hsp70-1A was 270 ± 40 µM.
